According to US7364866B2, “Drosophila G protein coupled receptors, nucleic acids, and methods related to the same” (Pharmacia & Upjohn Company, priority 1999, dated 2008):
Read-outs that look alike come from different tables or passages of the source. Residues, ends and D or L forms follow the SMILES beside them.

What was measured:
[1] = system: CHO cells stably transfected with a DmGPCR expression vector; experiment: Intracellular calcium measurement using FLIPR, positive controls; type: cell-based, Chinese hamster; settings: positive controls: A23187 10 μM, ATP 4 μM
Description: (§1) Changes in intracellular calcium levels are another recognized indicator of G protein-coupled receptor activity, and such assays can be employed to screen for modulators of DmGPCR activity. For example, CHO cells stably transfected with a DmGPCR expression vector are plated at a density of 4×10^4 cells/well in Packard black-walled, 96-well plates specially designed to discriminate fluorescence signals emanating from the various wells on the plate. The cells are incubated for 60 minutes at 37° C. in modified Dulbecco's PBS (D-PBS) containing 36 mg/L pyruvate and 1 g/L glucose and one of four calcium indicator dyes (Fluo-3™ AM, Fluo-4™ AM, Calcium Green™-1 AM, or Oregon Green™ 488 BAPTA-1 AM), each at a concentration of 4 μM. […]
(§2) A calcium response is initiated by the addition of one or more candidate receptor agonist compounds, calcium ionophore A23187 (10 μM; positive control), or ATP (4 μM; positive control). Fluorescence is measured by Molecular Device's FLIPR with an argon laser (excitation at 488 nm). […] Basal fluorescence of cells was measured for 20 seconds prior to addition of candidate agonist, ATP, or A23187, and the basal fluorescence level was subtracted from the response signal. The calcium signal is measured for approximately 200 seconds, taking readings every two seconds. […]

[2] = system: DmGPCR1; experiment: Ca+2 mobilization assay (FLIPR), transfected CHO cells; type: cell-based, Drosophila melanogaster
Description: as §1, §2

[3] = target: DmGPCR8; experiment: [35S]GTPγS binding assay, dose response; type: biochemical, Drosophila melanogaster; settings: DmGPCR8 in CHO-10001A cells; given in words
Description: The transfected cells were washed once with ice-cold Dulbecco's phosphate buffered saline (PBS), 5 ml per 10 cm plate, and scraped into 5 ml of the same buffer. Cell suspensions from multiple plates were combined and centrifuged at 500×g for 10 min at 4° C. The cell pellet was reconstituted in ice-cold TEE (25 mM TRIS, 5 mM EGTA, 5 mM EDTA). Convenient aliquots were snap-frozen in liquid nitrogen and stored at −70° C. After thawing, the cells were homogenized and centrifuged at 4° C., 500×g for 5 minutes to pellet nuclei and unbroken cells. The supernatant was centrifuged at 47,000×g for 30 minutes at 4° C. […] Membrane protein concentration was determined using the BCA Protein Assay Reagent from Pierce (Rockford, Ill.) and BSA as standard. […]
Ligand-induced stimulation of [^35S]GTPγS binding was expressed as fold increase over the basal activity with no ligand added. Each treatment was run either in triplicate, or, on occasion, in duplicate, and the binding (cpm) was calculated as means +/− standard deviations. Dose-response curves for the receptor/ligand systems were analyzed using a non-linear least square SAS model, y=Bmax X/(Kd+X). Other dose-response curves were analyzed using Prism (GraphPad Software, Inc. San Diego, Calif.) and the following equation y=Bottom+(Top−Bottom)/(1+10^LogEC50-X). […]

[4] = system: DmGPCR8; experiment: direct calcium mobilization assay (FLIPR); type: cell-based, Drosophila melanogaster; settings: DmGPCR8 without chimeric G-protein
Description: as §1, §2

[5] = system: muscle contraction; settings: cited from earlier work
[6] = system: DmGPCR8 and chimeric G-proteins; experiment: calcium mobilization (FLIPR) in CHO-10001A cells co-transfected with chimeric G-proteins; type: cell-based, Drosophila melanogaster; settings: for EC50: read-out: EC50, calcium releasing activity
Description: Changes in intracellular calcium levels are another recognized indicator of G protein-coupled receptor activity, and such assays can be employed to screen for modulators of DmGPCR activity. For example, CHO cells stably transfected with a DmGPCR expression vector are plated at a density of 4×10^4 cells/well in Packard black-walled, 96-well plates specially designed to discriminate fluorescence signals emanating from the various wells on the plate. The cells are incubated for 60 minutes at 37° C. in modified Dulbecco's PBS (D-PBS) containing 36 mg/L pyruvate and 1 g/L glucose and one of four calcium indicator dyes (Fluo-3™ AM, Fluo-4™ AM, Calcium Green™-1 AM, or Oregon Green™ 488 BAPTA-1 AM), each at a concentration of 4 μM. Plates are washed once with modified D-PBS and incubated for 10 minutes at 37° C. to remove residual dye from the cellular membrane. In addition, a series of washes with modified D-PBS is performed immediately prior to activation of the calcium response.
A calcium response is initiated by the addition of one or more candidate receptor agonist compounds, calcium ionophore A23187 (10 μM; positive control), or ATP (4 μM; positive control). Fluorescence is measured by Molecular Device's FLIPR with an argon laser (excitation at 488 nm). (See, e.g., Kuntzweiler et al., Drug Dev. Res., 1998, 44(1), 14-20). The F-stop for the detector camera was set at 2.5, and the length of exposure was 0.4 milliseconds. Basal fluorescence of cells was measured for 20 seconds prior to addition of candidate agonist, ATP, or A23187, and the basal fluorescence level was subtracted from the response signal. The calcium signal is measured for approximately 200 seconds, taking readings every two seconds. Calcium ionophore A23187 and ATP increase the calcium signal 200% above baseline levels. In general, activated GPCRs increase the calcium signal approximately 10-15% above baseline signal.
Originally, we have chosen the GTPγS assay as a functional assay because agonist-driven stimulation of GTPγS reflects early events in the DmGPCR activation cascade, regardless of further activation pathways of various down-stream signaling events. This appears especially useful for the assessment of possible activation of orphan DmGPCRs with unknown functions and unknown signaling pathways. […] Since the GTPγS assay is known to poorly recognize GPCRs coupled to the Gq class of G-proteins, a Ca^+2 mobilization assay based on a FLIPR readout was used as well to evaluate Gq-coupled orphan GPCRs in CHO cells transiently transfected with DNA encoding Drosophila GPCRs.

[7] = target: T1, DmGPCR5 (Drosophila melanogaster, UniProt P30975, L70Q); experiment: biochemical; design: expressed in transfected cells; host or cells: CHO-1000A (so in the source), transient; settings: for maximal stimulation of GTPγS binding above basal level: dose-response
T1 sequence (P30975 whole entry L70Q): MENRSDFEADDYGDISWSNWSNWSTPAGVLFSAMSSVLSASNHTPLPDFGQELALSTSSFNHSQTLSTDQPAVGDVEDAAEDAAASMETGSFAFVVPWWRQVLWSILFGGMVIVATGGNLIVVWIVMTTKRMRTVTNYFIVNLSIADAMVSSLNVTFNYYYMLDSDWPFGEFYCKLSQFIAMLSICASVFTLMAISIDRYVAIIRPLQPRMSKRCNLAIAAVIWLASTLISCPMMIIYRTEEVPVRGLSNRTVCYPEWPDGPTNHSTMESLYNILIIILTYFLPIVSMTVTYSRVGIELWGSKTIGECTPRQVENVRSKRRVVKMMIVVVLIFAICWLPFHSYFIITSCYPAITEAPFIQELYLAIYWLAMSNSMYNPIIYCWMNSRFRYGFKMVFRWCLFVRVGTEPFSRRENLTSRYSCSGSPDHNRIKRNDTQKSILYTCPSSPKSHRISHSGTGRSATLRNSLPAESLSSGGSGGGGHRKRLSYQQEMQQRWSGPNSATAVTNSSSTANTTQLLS
Description: The transfected cells were washed once with ice-cold Dulbecco's phosphate buffered saline (PBS), 5 ml per 10 cm plate, and scraped into 5 ml of the same buffer. Cell suspensions from multiple plates were combined and centrifuged at 500×g for 10 min at 4° C. The cell pellet was reconstituted in ice-cold TEE (25 mM TRIS, 5 mM EGTA, 5 mM EDTA). Convenient aliquots were snap-frozen in liquid nitrogen and stored at −70° C. After thawing, the cells were homogenized and centrifuged at 4° C., 500×g for 5 minutes to pellet nuclei and unbroken cells. The supernatant was centrifuged at 47,000×g for 30 minutes at 4° C. The membrane pellet was washed once with TEE, resuspended in 20 mM HEPES, pH 7.4, 100 mM NaCl, 10 mM MgCl2, 1 mM EDTA (assay buffer), aliquoted and frozen in liquid nitrogen. Membrane aliquots were stored at −70° C. Membrane protein concentration was determined using the BCA Protein Assay Reagent from Pierce (Rockford, Ill.) and BSA as standard.
Initially, reaction mixtures were prepared in 96-well polypropylene plates (Nunc). In each well, peptide aqueous solution (20 μl, 10×), or water controls (20 μl), 18.2 μM GDP in assay buffer (0.11 ml, 10 μM final), and membranes suspended in assay buffer (50 μl, 10 μg membrane protein) were mixed and placed on ice. […] Then the membranes were washed 3 times with 0.25 ml ice-cold wash buffer/well (10 mM HEPES, 10 mM MgCl2, pH 7.4) and vacuum filtered. […] Each treatment was carried out in triplicates.
Ligand-induced stimulation of [^35S]GTPγS binding was expressed as fold increase over the basal activity with no ligand added. Each treatment was run either in triplicate, or, on occasion, in duplicate, and the binding (cpm) was calculated as means +/− standard deviations. Dose-response curves for the receptor/ligand systems were analyzed using a non-linear least square SAS model, y=Bmax X/(Kd+X). Other dose-response curves were analyzed using Prism (GraphPad Software, Inc. San Diego, Calif.) and the following equation y=Bottom+(Top−Bottom)/(1+10^LogEC50-X).
Originally, we have chosen the GTPγS assay as a functional assay because agonist-driven stimulation of GTPγS reflects early events in the DmGPCR activation cascade, regardless of further activation pathways of various down-stream signaling events. This appears especially useful for the assessment of possible activation of orphan DmGPCRs with unknown functions and unknown signaling pathways. The GTPγS assay was carried out with membranes prepared from CHO cells transiently transfected with DNA encoding Drosophila GPCRs using a 96-well MultiScreen G/FB filter plates and a MultiScreen vacuum manifold (Millipore) for filtration. Since the GTPγS assay is known to poorly recognize GPCRs coupled to the Gq class of G-proteins, a Ca^+2 mobilization assay based on a FLIPR readout was used as well to evaluate Gq-coupled orphan GPCRs in CHO cells transiently transfected with DNA encoding Drosophila GPCRs.

[8] = target: T1, DmGPCR5; experiment: cell-based
Description: The photoprotein luciferase provides another useful tool for assaying for modulators of DmGPCR activity. Cells (e.g., CHO cells or COS7 cells) are transiently co-transfected with both a DmGPCR expression construct (e.g., DmGPCR in pzeoSV2) and a reporter construct which includes a gene for the luciferase protein downstream from a transcription factor binding site, such as the cAMP-response element (CRE), AP-1, or NF-kappa B. Agonist binding to receptors coupled to the Gs subtype of G proteins leads to increases in cAMP, thereby activating the CRE transcription factor and resulting in expression of the luciferase gene. […] Luciferase activity may be quantitatively measured using, e.g., luciferase assay reagents that are commercially available from Promega (Madison, Wis.).
In one exemplary assay, CHO cells are plated in 24-well culture dishes at a density of 100,000 cells/well one day prior to transfection and cultured at 37° C. in MEM (Gibco/BRL) supplemented with 10% fetal bovine serum, 2 mM glutamine, 10 μg/ml penicillin, and 10 μg/ml streptomycin. […] After incubation for 15 minutes at room temperature, 15 μl of the lysate is mixed with 50 μl of substrate solution (Promega) in an opaque-white, 96-well plate, and the luminescence is read immediately on a Wallace model 1450 MicroBeta scintillation and luminescence counter (Wallace Instruments, Gaithersburg, Md.). […]

With `CNc1ccc2oc(C[C@H]3O[C@@]4(CC[C@H]3C)O[C@H]([C@H](C)C(=O)c3ccc[nH]3)[C@H](C)C[C@H]4C)nc2c1C(=O)O` [A23187] the “increase of the calcium signal above baseline levels” value [1] was 200%.

In the case of `CC(C)C[C@H](NC(=O)[C@H](CCCNC(=N)N)NC(=O)[C@H](CC(C)C)NC(=O)[C@H](CCC(N)=O)NC(=O)[C@@H]1CCCN1C(=O)CNC(=O)[C@H](CCCNC(=N)N)NC(=O)[C@H](C)N)C(=O)N[C@@H](CCCNC(=N)N)C(=O)N[C@@H](Cc1ccccc1)C(N)=O` [ARGPQLRLRF-NH2] (H-ARGPQLRLRF-NH2; N-terminus assumed), the EC50 [2] is reported as 100 to 200 nM.

For `Nc1ncnc2c1ncn2[C@@H]1O[C@H](COP(=O)(O)OP(=O)(O)OP(=O)(O)O)[C@@H](O)[C@H]1O` [ATP], the “increase of the calcium signal above baseline levels” value [1] was 200%.

In the case of `CC[C@H](C)[C@@H]1NC(=O)[C@@H]2CCCN2C(=O)[C@H](CC(N)=O)NC(=O)[C@H](Cc2ccccc2)NC(=O)[C@H](Cc2ccc(O)cc2)NC(=O)[C@@H](NC(=O)[C@H](CCC(N)=O)NC(=O)[C@H](CCCNC(=N)N)NC(=O)[C@H](Cc2ccc(O)cc2)NC(=O)[C@H](CCCNC(=N)N)NC(=O)[C@@H](NC(=O)[C@@H]2CCC(=O)N2)C(C)C)CSSC[C@@H](C(=O)N[C@@H](Cc2ccccc2)C(=O)O)NC(=O)[C@H](CO)NC1=O` [DST-C, pGlu-Val-Arg-Tyr-Gln-Cys-Tyr-Phe-Asn-Pro-Ile-Ser-Cys-Phe-OH], the “EC50, GTPγS-binding responses” value [3] is given as “low nanomolar range”, the “activity in direct calcium mobilization assay (FLIPR)” value [4] is given as “did not show any activity” and the “inhibition of muscle contraction” value [5] is given as “potent and prolonged inhibition”. The EC50 ([6]; co-transfected with DmGPCR8 and Gqi5) was ~30 nM, the EC50 ([6]; co-transfected with DmGPCR8 and Gqo5) was ~30 nM and the calcium mobilization ([6]; co-transfected with DmGPCR8 and Gqs5) was “no calcium mobilization was observed”. It also gave an EC50 ([6]; co-transfected with DmGPCR8 and Gqz5) of 244 nM.

Compound `CC[C@H](C)[C@H](NC(=O)[C@H](Cc1ccccc1)NC(=O)[C@H](CO)NC(=O)[C@H](CO)NC(=O)[C@@H](NC(=O)[C@@H]1CCCN1C(=O)[C@H](C)N)[C@@H](C)O)C(=O)NCC(=O)N[C@@H](CCSC)C(=O)N[C@@H](CCCNC(=N)N)C(N)=O` [DTK-1, APTSSFIGMR-NH2] (H-APTSSFIGMR-NH2) has an EC50 [7] of 250 to 500 nM.

With `CC(C)C[C@H](NC(=O)CNC(=O)[C@H](Cc1ccc(O)cc1)NC(=O)[C@H](Cc1ccccc1)NC(=O)[C@H](C)NC(=O)[C@H](CC(C)C)NC(=O)[C@@H]1CCCN1C(=O)[C@H](C)N)C(=O)N[C@@H](CCCNC(=N)N)C(N)=O` [DTK-2, APLAFYGLR-NH2] (H-APLAFYGLR-NH2) the “EC50, stimulation of GTPγS binding” value ([7]; DmGPCR5, given in words) was “low micromolar range” and the EC50 [8] was 1060 nM.

`CSCC[C@H](NC(=O)CNC(=O)[C@@H](NC(=O)[C@H](Cc1ccccc1)NC(=O)CNC(=O)[C@@H](NC(=O)[C@@H]1CCCN1C(=O)[C@H](C)N)[C@@H](C)O)[C@@H](C)O)C(=O)N[C@@H](CCCNC(=N)N)C(N)=O` [DTK-3, APTGFTGMR-NH2] (H-APTGFTGMR-NH2) gave an EC50 [7] of 250 to 500 nM.

For `CSCC[C@H](NC(=O)CNC(=O)[C@H](CC(C)C)NC(=O)[C@H](Cc1ccccc1)NC(=O)CNC(=O)[C@H](CC(N)=O)NC(=O)[C@@H]1CCCN1C(=O)[C@H](C)N)C(=O)N[C@@H](CCCNC(=N)N)C(N)=O` [DTK-5, APNGFLGMR-NH2] (H-APNGFLGMR-NH2), the EC50 [7] was 250 to 500 nM, the “maximal stimulation of GTPγS binding above basal level” value ([7]; DmGPCR5) was “ca. 1.5 fold” and the EC50 [8] was 197 nM.

With `CSCC[C@H](NC(=O)CNC(=O)[C@H](Cc1ccc(O)cc1)NC(=O)[C@H](Cc1ccccc1)NC(=O)[C@H](C)NC(=O)[C@H](CC(C)C)NC(=O)[C@@H]1CCCN1C(=O)[C@H](C)N)C(=O)N[C@@H](CCCNC(=N)N)C(N)=O` [Met8-DTK-2, APLAFYGMR-NH2] (H-APLAFYGMR-NH2) the “maximal stimulation of GTPγS binding above basal level” value ([7]; DmGPCR5) was “ca. 1.5 fold”.
